Read-outs that look alike come from different tables or passages of the source.
Experiments:
Bcl-XL [1] = target: T1, Bcl-XL (Homo sapiens (Human), UniProt Q07817); assay: Bcl-XL HTRF assay (FAM-Bad peptide); type: binding; conditions: read-out: Bc1-XL IC50
Bcl-XL [2] = target: T1, Bcl-XL; assay: Bcl-2 protein family binding assay (Bcl2scan platform), Bcl-XL; conditions: BIM peptide ligand, 11-point dilution, read-out: Bc1-XL Kd (nm)
Procedure: (§1) E. coli were grown to log-phase and infected with T7 phage from a frozen stock (multiplicity of infection=0.4) and incubated with shaking at 32° C. until lysis (90-150 minutes). The lysates were centrifuged (5,000×g) and filtered (0.2 μm) to remove cell debris. […] The liganded beads were blocked with excess biotin and washed with blocking buffer (SeaBlock (Pierce), 1% BSA, 0.05% Tween 20, 1 mM DTT) to remove unbound ligand and to reduce non-specific phage binding. […] Test compounds were prepared as 100× stocks in 100% DMSO. Kds were determined using an 11-point 3-fold compound dilution series with one DMSO control point. […] The compounds were then diluted directly into the assays such that the final concentration of DMSO was 0.9%. All reactions performed in polypropylene 384-well plates. Each was a final volume of 0.02 ml. […] The BCL2 concentration in the eluates was measured by qPCR. Binding constants (Kds) were calculated with a standard dose-response curve using the Hill equation:
(§2) [formula] The Hill Slope was set to −1. Curves were fitted using a non-linear least square fit with the Levenberg-Marquardt algorithm.

RS4;11 cells = assay: RS4;11 cell proliferation assay (CellTiter-Glo); type: cell-based; conditions: Homo sapiens, RS4-11, 48 h, read-out: RS4;11 (nM), CTG IC50
Procedure: (§3) Cell proliferation was measured using the CellTiter-Glo® Luminescent Cell Viability Assay. The assay involved the addition of a single reagent (CellTiter-Glo® Reagent) directly to cells cultured in serum-supplemented medium.
(§4) Each compound evaluated was prepared as a DMSO stock solution (10 mM). Compounds were tested in duplicate on each plate, with a 10-point serial dilution curve (1:3 dilution). Compound treatment (1.0 μL) was added from the compound dilution plate to the cell plate. The highest compound concentration was 10 μM (final), with a 0.1% final DMSO concentration. Plates were then incubated at 37° C., 5% CO2. After 48 h of compound treatment for RS4;11 or 72 h for NCI-H1963, cell plates were equilibrated at rt for approximately 30 mins. An equi-volume amount of CellTiter-Glo® Reagent (40 μL) was added to each well. […] Luminescence was recorded using a Envision plate reader according to CellTiter-Glo protocol. IC50 of each compound was calculated using GraphPad Prism by nonlinear regression analysis.

Bcl-2 [3] = target: T2, Bcl-2 (Homo sapiens (Human), UniProt P10415); assay: Bcl-2 protein family binding assay (Bcl2scan platform), Bcl-2; conditions: BIM peptide ligand, 11-point dilution, read-out: Bc1-2 Kd (nm)
T2 sequence (P10415 whole entry): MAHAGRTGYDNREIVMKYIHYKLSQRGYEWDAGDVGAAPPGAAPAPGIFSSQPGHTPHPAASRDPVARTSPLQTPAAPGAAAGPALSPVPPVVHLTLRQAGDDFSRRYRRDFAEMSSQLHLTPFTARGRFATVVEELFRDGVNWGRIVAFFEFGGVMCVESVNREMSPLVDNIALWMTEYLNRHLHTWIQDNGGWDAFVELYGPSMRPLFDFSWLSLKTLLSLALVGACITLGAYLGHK
Procedure: as §1, §2

Bcl-2 [4] = target: T2, Bcl-2; assay: Bcl-2 HTRF assay (FAM-Bak peptide); type: binding; conditions: read-out: Bc1-2 IC50
NCI-H1963 cells = assay: NCI-H1963 cell proliferation assay (CellTiter-Glo); type: cell-based; conditions: Homo sapiens, NCI-H1963, 72 h, read-out: H1963 (nM), CTG IC50
Procedure: as §3, §4

[5] = HTRF, 3 nM Bcl-XL, 40 nM FAM-Bad peptide
[6] = HTRF, 4 nM Bcl-2, 100 nM FAM-Bak peptide

T1 sequence (Q07817 whole entry): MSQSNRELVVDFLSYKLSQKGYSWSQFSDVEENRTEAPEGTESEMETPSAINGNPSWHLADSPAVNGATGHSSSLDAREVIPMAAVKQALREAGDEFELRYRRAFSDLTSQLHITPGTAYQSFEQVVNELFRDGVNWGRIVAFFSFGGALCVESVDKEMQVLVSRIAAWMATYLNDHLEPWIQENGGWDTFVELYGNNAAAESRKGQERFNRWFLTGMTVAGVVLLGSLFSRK

`CC1(C)CCC(CN2CCN(c3ccc(C(=O)NS(=O)(=O)c4ccc(NCC5(F)CCOCC5)c([N+](=O)[O-])c4)c(Oc4cnc5[nH]ccc5c4)c3)CC2)=C(C23CC(C)(C2)C3)C1` [Example 15, 2-(1H-pyrrolo[2,3-b]pyridin-5-yloxy)-4-(4-((4,4-dimethyl-2-(3-methylbicyclo[1.1.1]pentan-1-yl)cyclohex-1-enyl)methyl)piperazin-1-yl)-N-(4-((4-fluorotetrahydro-2H-pyran-4-yl)methylamino)-3-nitrophenylsulfonyl)benzamide] was tested, and the IC50 (Bcl-XL [1]; [5]) was ≥ 0.1 µM, the Kd (Bcl-XL [2]) was > 0.1 µM and the IC50 (RS4;11 cells) was < 100 nM. The Kd (Bcl-2 [3]) was < 0.01 µM and the IC50 (Bcl-2 [4]; [6]) was ≤ 0.01 µM.

With `CC1(C)CCC(CN2CCN(c3ccc(C(=O)NS(=O)(=O)c4ccc(NC[C@H]5CC[C@](C)(O)CC5)c([N+](=O)[O-])c4)c(Oc4cnc5[nH]ccc5c4)c3)CC2)=C(C23CC(C)(C2)C3)C1` [Example 20, 2-(1H-pyrrolo[2,3-b]pyridin-5-yloxy)-4-(4-((4,4-dimethyl-2-(3-methylbicyclo[1.1.1]pentan-1-yl)cyclohex-1-enyl)methyl)piperazin-1-yl)-N-(4-(((1r,4r)-4-hydroxy-4-methylcyclohexyl)methylamino)-3-nitrophenylsulfonyl)benzamide] the IC50 (Bcl-XL [1]; [5]) was ≥ 0.1 µM, the Kd (Bcl-XL [2]) was > 0.1 µM and the IC50 (RS4;11 cells) was < 100 nM. The Kd (Bcl-2 [3]) was < 0.01 µM and the IC50 (Bcl-2 [4]; [6]) was ≤ 0.01 µM.

In the case of `CC1(C)CCC(CN2CCN(c3ccc(C(=O)NS(=O)(=O)c4ccc(NC[C@H]5CC[C@](C)(O)CC5)c([N+](=O)[O-])c4)c(Oc4cnc5[nH]ccc5c4)c3)CC2)=C(C23CC(C(F)F)(C2)C3)C1` [Example 34, 2-((1H-pyrrolo[2,3-b]pyridin-5-yl)oxy)-4-(4-((2-(3-(difluoromethyl)bicyclo[1.1.1]pentan-1l-yl)-4,4-dimethylcyclohex-1-en-1-yl)methyl)piperazin-1-yl)-N-((4-((((1r,4r)-4-hydroxy-4-methylcyclohexyl)methyl)amino)-3-nitrophenyl)sulfonyl)benzamide], the IC50 (Bcl-XL [1]; [5]) is reported as 0.01 to 0.1 µM, the Kd (Bcl-XL [2]) is reported as > 0.1 µM and the IC50 (RS4;11 cells) is reported as < 100 nM. The Kd (Bcl-2 [3]) was < 0.01 µM and the IC50 (Bcl-2 [4]; [6]) was ≤ 0.01 µM.

`CC1(C)CCC(C23CC(C)(C2)C3)=C(CN2CCN(c3ccc(C(=O)NS(=O)(=O)c4ccc(N[C@H](CCN5CCC(O)CC5)CSc5ccccc5)c(S(=O)(=O)C(F)(F)F)c4)cc3)CC2)C1` [Example 48, (R)-4-(4-((5,5-dimethyl-2-(3-methylbicyclo[1.1.1]pentan-1-yl)cyclohex-1-enyl)methyl)piperazin-1-yl)-N-(4-(4-(4-hydroxypiperidin-1-yl)-1-(phenylthio)butan-2-ylamino)-3-(trifluoromethylsulfonyl)phenylsulfonyl)benzamide] was tested, and the IC50 (Bcl-XL [1]) was < 0.01 µM, the Kd (Bcl-XL [2]) was 0.01 to 0.1 µM and the IC50 (RS4;11 cells) was 100 to 1000 nM. The Kd (Bcl-2 [3]) was 0.01 to 0.1 µM and the IC50 (Bcl-2 [4]) was < 0.01 µM.

`CC1(C)CCC(CN2CCN(c3ccc(C(=O)NS(=O)(=O)c4ccc(N[C@H](CCN5CCOCC5)CSc5ccccc5)c(S(=O)(=O)C(F)(F)F)c4)cc3)CC2)=C(C23CC(C(F)F)(C2)C3)C1` [Example 55, (R)-4-(4-((2-(3-(difluoromethyl)bicyclo[1.1.1]pentan-1-yl)-4,4-dimethylcyclohex-1-en-1-yl)methyl)piperazin-1-yl)-N-((4-((4-morpholino-1-(phenylthio)butan-2-yl)amino)-3-((trifluoromethyl)sulfonyl)phenyl)sulfonyl)benzamide] was tested, and the IC50 (Bcl-XL [1]; [5]) was ≤ 0.01 µM, the IC50 (RS4;11 cells) was 100 to 1000 nM and the IC50 (Bcl-2 [4]; [6]) was ≤ 0.01 µM.

In the case of `CC1(C)CCC(CN2CCN(c3ccc(C(=O)NS(=O)(=O)c4ccc(N[C@H](CCN5CCOCC5)CSc5ccccc5)c([N+](=O)[O-])c4)cc3)CC2)=C(C23CC(C(F)F)(C2)C3)C1` [Example 58, (R)-4-(4-((2-(3-(difluoromethyl)bicyclo[1.1.1]pentan-1-yl)-4,4-dimethylcyclohex-1-en-1-yl)methyl)piperazin-1-yl)-N-((4-((4-morpholino-1-(phenylthio)butan-2-yl)amino)-3-nitrophenyl)sulfonyl)benzamide], the IC50 (Bcl-XL [1]; [5]) is reported as ≤ 0.01 µM, the IC50 (RS4;11 cells) is reported as 100 to 1000 nM and the IC50 (Bcl-2 [4]; [6]) is reported as ≤ 0.01 µM.

For `CN(C)CC[C@H](CSc1ccccc1)Nc1ccc(S(=O)(=O)NC(=O)c2ccc(N3CCN(CC4=C(C56CC(C)(C5)C6)CC(C)(C)CC4)CC3)cc2)cc1S(=O)(=O)C(F)(F)F` [Example 59, (R)-4-(4-((4,4-dimethyl-2-(3-methylbicyclo[1.1.1]pentan-1-yl)cyclohex-1-en-1-yl)methyl)piperazin-1-yl)-N-((4-((4-(dimethylamino)-1-(phenylthio)butan-2-yl)amino)-3-((trifluoromethyl)sulfonyl)phenyl)sulfonyl)benzamide], the IC50 (Bcl-XL [1]; [5]) was ≤ 0.01 µM, the IC50 (RS4;11 cells) was 100 to 1000 nM and the IC50 (NCI-H1963 cells) was 500 to 1000 nM. The IC50 (Bcl-2 [4]; [6]) was ≤ 0.01 µM.

In the case of `CN(CCO)CC[C@H](CSc1ccccc1)Nc1ccc(S(=O)(=O)NC(=O)c2ccc(N3CCN(CC4=C(C56CC(C(F)F)(C5)C6)CC(C)(C)CC4)CC3)cc2)cc1S(=O)(=O)C(F)(F)F` [Example 60, (R)-4-(4-((2-(3-(difluoromethyl)bicyclo[1.1.1]pentan-1-yl)-4,4-dimethylcyclohex-1-en-1-yl)methyl)piperazin-1-yl)-N-((4-((4-((2-hydroxyethyl)(methyl)amino)-1-(phenylthio)butan-2-yl)amino)-3-((trifluoromethyl)sulfonyl)phenyl)sulfonyl)benzamide], the IC50 (Bcl-XL [1]; [5]) is reported as ≤ 0.01 µM, the IC50 (RS4;11 cells) is reported as < 100 nM and the IC50 (NCI-H1963 cells) is reported as 500 to 1000 nM. The IC50 (Bcl-2 [4]; [6]) was ≤ 0.01 µM.

With `CC1(C)CCC(CN2CCN(c3ccc(C(=O)NS(=O)(=O)c4ccc(N[C@H](CCN5CCC(O)CC5)CSc5ccccc5)c(S(=O)(=O)C(F)(F)F)c4)cc3)CC2)=C(C23CC(C(F)F)(C2)C3)C1` [Example 61, (R)-4-(4-((2-(3-(Difluoromethyl)bicyclo[1.1.1]pentan-1-yl)-4,4-dimethylcyclohex-1-en-1-yl)methyl)piperazin-1-yl)-N-((4-((4-(4-hydroxypiperidin-1-yl)-1-(phenylthio)butan-2-yl)amino)-3-((trifluoromethyl)sulfonyl)phenyl)sulfonyl)benzamide] the IC50 (Bcl-XL [1]; [5]) was ≤ 0.01 µM, the IC50 (RS4;11 cells) was < 100 nM and the IC50 (NCI-H1963 cells) was < 500 nM. For the same molecule, the IC50 (Bcl-2 [4]; [6]) was ≤ 0.01 µM.

`CN(C)C1CCN(CC[C@H](CSc2ccccc2)Nc2ccc(S(=O)(=O)NC(=O)c3ccc(N4CCN(CC5=C(C67CC(C(F)F)(C6)C7)CC(C)(C)CC5)CC4)cc3)cc2S(=O)(=O)C(F)(F)F)CC1` [Example 62, (R)-4-(4-((2-(3-(Difluoromethyl)bicyclo[1.1.1]pentan-1-yl)-4,4-dimethylcyclohex-1-en-1-yl)methyl)piperazin-1-yl)-N-((4-((4-(4-(dimethylamino)piperidin-1-yl)-1-(phenylthio)butan-2-yl)amino)-3-((trifluoromethyl)sulfonyl)phenyl)sulfonyl)benzamide] was tested, and the IC50 (Bcl-XL [1]; [5]) was ≤ 0.01 µM, the IC50 (RS4;11 cells) was 100 to 1000 nM and the IC50 (NCI-H1963 cells) was < 500 nM. The IC50 (Bcl-2 [4]; [6]) was ≤ 0.01 µM.

`O=C(NS(=O)(=O)c1ccc(N[C@H](CCN2CCC(O)CC2)CSc2ccccc2)c(S(=O)(=O)C(F)(F)F)c1)c1ccc(N2CCN(CC3=C(C45CC(C(F)F)(C4)C5)CC4(CCC4)CC3)CC2)cc1` [Example 67, (R)-4-(4-((6-(3-(difluoromethyl)bicyclo[1.1.1]pentan-1-yl)spiro[3.5]non-6-en-7-yl)methyl)piperazin-1-yl)-N-((4-((4-(4-hydroxypiperidin-1-yl)-1-(phenylthio)butan-2-yl)amino)-3-((trifluoromethyl)sulfonyl)phenyl)sulfonyl)benzamide] was tested, and the IC50 (Bcl-XL [1]; [5]) was ≤ 0.01 µM, the IC50 (RS4;11 cells) was 100 to 1000 nM and the IC50 (Bcl-2 [4]; [6]) was ≤ 0.01 µM.

With `CC1(C)CCC(CN2CCN(c3ccc(C(=O)NS(=O)(=O)c4ccc(N[C@H](CCN5CCN(CCO)CC5)CSc5ccccc5)c(S(=O)(=O)C(F)(F)F)c4)cc3)CC2)=C(C23CC(C(F)F)(C2)C3)C1` [Example 69, (R)-4-(4-((2-(3-(difluoromethyl)bicyclo[1.1.1]pentan-1-yl)-4,4-dimethylcyclohex-1-en-1-yl)methyl)piperazin-1-yl)-N-((4-((4-(4-(2-hydroxyethyl)piperazin-1-yl)-1-(phenylthio)butan-2-yl)amino)-3-((trifluoromethyl)sulfonyl)phenyl)sulfonyl)benzamide] the IC50 (Bcl-XL [1]; [5]) was ≤ 0.01 µM, the IC50 (NCI-H1963 cells) was 500 to 1000 nM and the IC50 (Bcl-2 [4]; [6]) was ≤ 0.01 µM.

— patent US11318134B2, “Benzamide compounds” (priority 2018, dated 2022)
